Patent US20220339260A1, “METHOD FOR PRODUCING INSULIN-PRODUCING CELL USING DIHYDROINDOLIZINONE DERIVATIVES” (TOKYO INSTITUTE OF TECHNOLOGY, priority 2019, published 2022)

Legend:
SK7 mouse ES cells = test: Screening for β cell differentiation enhancer using SK7 mouse ES cells (Pdx1-GFP); assay type: cell-based; details: LY411575 alone
Method: The SK7 mouse ES cells were differentiated into β cells basically according to the previous report (Nakashima et al., 2015). Briefly, the cells were seeded at 5,000 cells per well in CellBIND 384-well (CORNING, 3770) cell culture plate or at 20,000 cells per well in a 96-well plate (Sigma) coated with 0.2% gelatin. Then, the cells were cultured in medium 1 from days 1 to 5. Medium 1 consisted of DMEM (high glucose) (Life Technologies, 11965092) supplemented with 0.1 mM NEAA (Gibco, 11140-50), 2 mM L-glutamine (Nacalai, 16948-04), 100 U/mL penicillin-streptomycin (Nacalai, 26252-94), 0.01 mM β-mercaptoethanol (Sigma), 1% insulin-transferrin-selenium supplement (ITS: Life Technologies, 41400045), 0.25% Albumax (Thermo Fisher, 11020021), and 10 ng/mL recombinant human activin-A (R&D Systems, 338-AC). Subsequently, the cells were cultured for 1 day in medium 2 which consisted of medium 1 supplemented with 10 μM retinoic acid (Stemgent, 04-0021). On day 6, the medium was replaced with medium 3, and the culture was continued until day 12 in order to induce differentiation into β cells. Medium 3 consisted of DMEM (low glucose) (Life Technologies, 11885084) supplemented with 0.1 mM NEAA, 2 mM L-glutamine, 100 U/mL penicillin-streptomycin, 0.1 mM β-mercaptoethanol, 1% ITS, 0.25% Albumax, and 3 mM nicotinamide (Sigma-Aldrich, N0636-500G). A test compound was added on day 8, and the cells were fixed in 4% paraformaldehyde for analysis using a high-content imager.
A chemical library consisting of about 55,000 compounds was screened for a substance that induced β cell differentiation. […] Fluorescence images were quantified using Operetta high-content imaging system and Harmony image analysis software (PerkinElmer, Germany). The nuclei were identified by DAPI staining, and the positivity of antibody staining was determined from the fluorescence intensity of a cytoplasmic region surrounding the nucleus. The number of cells positive to both insulin and GFP was counted and normalized with the total number of DAPI-positive cells or a positive area. A median of quadruple data was calculated, and screening hits were defined as states in which the number of insulin- and GFP-positive cells was increased as compared with a DMSO control. […] The activity of the selected candidate compounds was further analyzed with Toe human iPS cell assay system in order to select a hit compound having effectiveness for both differentiation into mouse β cells and differentiation into human β cells. A compound was added as described above, and its effectiveness was evaluated from a mRNA expression level by q-PCR in triplet experiments. […]

Toe human iPS cells = test: Differentiation of Toe human iPS cells into iPS-β cells, monolayer culture, protocol #1; assay type: cell-based; details: treatment from later stage of stage 3 to initial stage of stage 5
Method: The Toe human iPS cells were seeded in CellBIND 6-well (CORNING, CLS3335) cell culture plate coated with synthemax II, and differentiated into primitive gut tube cells by the previously described method (Shahjalal et al., 2014). The cells were dissociated with TrypLE Select (Thermo Fisher, 12563011) and cryopreserved in BanBanker (Nippon genetics) at a density of 1.0 to 2.0×10^7 cells/mL until use. One day before compound addition, the cells were thawed in a medium for stage 3 (DMEM (high glucose), 0.25 μM SANT1 (Wako, 197-16351), 0.1 μM LDN193189 (Stemgent, 04-0074), 10 μM SB431542, 2 μM retinoic acid, 1% B27-free serum supplement (Life Technologies, 17504044), and seeded at 150,000 cells per well in CellBIND 96-well (Corning, 3340) cell culture plated coated with synthemax II. The cells were cultured for 1 day in a medium for stage 3 containing a test compound or a negative control (0.01% DMSO). The cells were further cultured for 2 days and 1 day in media for stages 4 and 5, respectively, containing the test compound or the negative control. On the next day, the cells were fixed in 4% paraformaldehyde for analysis using a high-content imager.

RPChiPS771 iPSC = test: Differentiation of RPChiPS771 iPS cells, sphere culture, protocol #1; assay type: cell-based, human; details: 0.25 μM, methionine depletion 5 hours
Method: (§1) The RPChipS771 cells were maintained as described above, and differentiated according to protocol #1. Briefly, on day 0, the cells were dissociated with TrypLE Select, transferred at a concentration of 1×10^6 cells/mL in Essential 8 medium to a low-attachment 6-well plate (Greiner, 657185), and cultured on a rotary shaker (95 rpm). On day 1, the medium was replaced with methionine-depleted medium KA01 (Ajinomoto), and the cells were cultured for 5 hours. The medium was replaced with differentiation medium 1 (DMEM (high glucose), L-Gln, NEAA, 0.01 mM β-mercaptoethanol, 100 ng/mL activin A, B27 supplement, 3 μM CHIR99021), and the cells were cultured for 1 day (stage 1-1). Then, the medium was replaced with medium 1 free from CHIR99021, and the cells were cultured for 2 days (stage 1-2). […]

Ff-I01s01 = test: Differentiation of Ff-I01s01 iPS cells, sphere culture, protocol #2; assay type: cell-based, human
Method: The FfI-01s01 cells were maintained as described above and then differentiated according to protocol #2. Briefly, the cells were dissociated with TrypLE Select, transferred at a concentration of 1×10^6 cells/mL in AK03N medium (Ajinomoto Co., Inc.) to a low-attachment 6-well plate, and cultured for 24 hours on a rotary shaker (95 rpm). Then, the medium was replaced with AK03N-based methionine-depleted medium KA01, and the cells were cultured for 5 hours. Then, the medium was replaced with M1-1 AKM medium, and the cells were cultured for 24 hours (stage 1-1). The cells were cultured for 2 days in M1-2 AKM medium (stage 1-2), subsequently cultured for 2 days in M2 AKM medium (stage 2-1), cultured for 2 days in S2 medium (stage 2-2), cultured for 2 days in S3 medium (stage 3), cultured for 5 days in S4 medium (stage 4), cultured for 4 days in S5-1 medium (stage 5-1), and cultured for 3 days in S5-2 medium (stage 5).
In the case of evaluating the effectiveness of a compound for a differentiation rate and a cell function, a test compound and a negative control ([…]), and immunostaining was carried out on days 14 (at the completion of stage 4) and 21 (at the completion of stage 5) in order to confirm an effect on positivity to insulin, NKX6.1, and PDX1. GSIS assay was carried out on day 21.
Immunocytochemistry was carried out according to a general protocol using the following antibodies: rabbit anti-MAFA (Abcam; ab26405; 1/100×), goat anti-PDX1 (R&D systems; AF2419; 1/100×), mouse anti-NKX6.1 (Developmental Studies Hybridoma Bank, University of Iowa; F64A6B4; 1/100×), guinea pig anti-INSULIN (Dako; IR002; 1/10×), mouse anti-INSULIN (Sigma-Aldrich; 12018; 1/1000×), rabbit anti-C-peptide (Cell Signaling; 4593; 1/100×), rabbit anti-GFP (MBL International Corp; 598; 1/1000×), and mouse anti-GLUCAGON (Sigma-Aldrich; G2654; 1/1000×). […]

[1] = test system: iPS-β cells (RpChiPSC771); test: GSIS function assay of iPS-β cells from sphere culture of RPChiPSC771, protocol #1; assay type: cell-based, human; details: 1 μM, treatment between stages 3 and 4
Method: as §1
Batch-mode GSIS assay was carried out as described below. […] The C-peptide concentration of a sample was measured using alphaLISA C-peptide kit (PerkinElmer, AL299F) or C-peptide ELISA and corrected with the DNA content of the cells used in the GSIS assay.

iPS-β cells = test: Response of iPS-β cells to insulin secretagogues (c-peptide secretion); assay type: cell-based, human; details: glibenclamide, exendin 4, and KCl
Method: Batch-mode GSIS assay was carried out as described below. An aliquot of the obtained human iPS-β cells was washed with LG-KRBH as described above. Then, the cells were incubated for 30 minutes or 1 hour in LG-HKRB buffer and subsequently incubated for the same time thereas in HG-HKRB buffer. In some experiments, after washing of the cells, the cells were dispensed into some aliquots and incubated for 1 hour in HG-HKRB buffer containing 0.01% DMSO or several types of insulin secretagogues. The C-peptide concentration of a sample was measured using alphaLISA C-peptide kit (PerkinElmer, AL299F) or C-peptide ELISA and corrected with the DNA content of the cells used in the GSIS assay.

C[C@H](NC(=O)[C@@H](O)c1cc(F)cc(F)c1)C(=O)N[C@@H]1C(=O)N(C)c2ccccc2-c2ccccc21 [LY411575, reference compound]
number of Pdx1-GFP+Ins+ double-positive cells (SK7 mouse ES cells): increase

O=C1CCC(C(=O)Nc2ncc(-c3ccc(OC(F)(F)F)cc3)s2)n2cccc21 (stereo not drawn) [Synthesis Example 9, 8-Oxo-N-[5-[4-(trifluoromethoxy)phenyl]thiazol-2-yl]-6,7-dihydro-5H-indolizine-5-carboxamide]
differentiation into iPS-β cells (INS+ cells) (Toe human iPS cells): stronger efficacy than that of the original compound K-1
differentiation into INSULIN+PDX1+ double-positive cells (RPChiPS771 iPSC): enhanced differentiation
differentiation depending on time window of addition (Ff-I01s01; added in a time window including stage 3): enhance differentiation most effectively
differentiation into INSULIN+NKX6.1+, NKX6.1+PDX1+ double-positive and INSULIN+NKX6.1+PDX1+ triple-positive cells (Ff-I01s01; protocol #2, end of stage 4 and later): enhanced differentiation
production of NKX6.1+ and INSULIN+NKX6.1+ double-positive cells (Ff-I01s01; treatment particularly in stages 3 to 5): promoted the production
glucose stimulated insulin secretion (GSIS) activity of obtained iPS-β cells [1]: enhanced
insulin secretion dynamics in step-wise time-course measurement [1]: rapid first-phase insulin secretion and long-lasting second-phase insulin secretion
c-peptide secretion by stimulation with insulin secretagogues (iPS-β cells): enhanced c-peptide secretion
